This note sets out measurements from ChEMBL document CHEMBL1201862, “PubChem BioAssay data set” (2004).

Activity calls are given as the source filed them. Bounds are passed on as bounds.

Experiment [1] in a line: P. falciparum 3D7-ScDHODH growth inhibitors, dose response, SYBR Green, dry powder samples (AID 1159570).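 Also: parasite growth measured after 72 hours of compound exposure.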 It is filed as functional, cell-based.
Experiment [2] is described as follows: P. falciparum ATP4 D1247Y mutant growth inhibitors, dose response, NITD609-resistant line, SYBR Green, dry powder (AID 1159571).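 Also: parasites synchronized at ring stage by sorbitol before testing.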 Type of experiment: functional, cell-based.
The nature of experiment [3]: P. falciparum Dd2 growth inhibitors, dose response, SYBR Green, cherry-picked samples (AID 1159567). Type of experiment: functional, cell-based.
Experiment [4] in a line: P. falciparum Dd2 growth inhibitors, dose response, SYBR Green, dry powder samples (AID 1159566).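 Also: potency for growth inhibition with lower SYBR green DNA signal.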 It is filed as functional, cell-based.
Experiment [5] is described as follows: HepG2 cell cytotoxicity, dose response, cytotoxicity control, plate reader, dry powder samples (AID 1159569).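 Also: inhibitor potency with signal falling toward the positive control level.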 Type of experiment: functional, cell-based.
Experiment [6] in a line: microbe, parasite or virus in culture. The following applies: Mycobacterium tuberculosis. Type of experiment: functional.
Experiment [7] has as its target T1, Leucine aminopeptidase (Plasmodium falciparum 3D7, UniProt Q8IL11).
T1 sequence (Q8IL11 whole entry): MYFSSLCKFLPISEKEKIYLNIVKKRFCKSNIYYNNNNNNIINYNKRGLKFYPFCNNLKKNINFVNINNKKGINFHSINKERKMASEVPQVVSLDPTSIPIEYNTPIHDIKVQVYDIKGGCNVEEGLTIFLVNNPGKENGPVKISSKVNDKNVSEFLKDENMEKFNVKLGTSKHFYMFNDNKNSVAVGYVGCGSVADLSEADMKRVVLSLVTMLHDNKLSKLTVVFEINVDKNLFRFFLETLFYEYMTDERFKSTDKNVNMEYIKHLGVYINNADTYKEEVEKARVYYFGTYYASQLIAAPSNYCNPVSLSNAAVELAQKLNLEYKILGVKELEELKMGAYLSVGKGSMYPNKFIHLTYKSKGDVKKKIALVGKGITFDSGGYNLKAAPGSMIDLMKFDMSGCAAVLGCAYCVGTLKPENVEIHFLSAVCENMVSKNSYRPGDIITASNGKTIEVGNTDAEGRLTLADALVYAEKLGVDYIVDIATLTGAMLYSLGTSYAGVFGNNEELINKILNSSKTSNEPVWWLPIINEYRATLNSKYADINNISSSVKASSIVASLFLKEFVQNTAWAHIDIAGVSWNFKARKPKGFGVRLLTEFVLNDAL
Description: P. falciparum M17LAP inhibitors, primary screen, biochemical, fluorogenic H-Leu-NHMec substrate, 1536-well (AID 1619). It is filed as functional.

Experiment [8] in a line: HepG2 cell cytotoxicity, dose response, cytotoxicity control for Shn3 inhibitor project, CellTiter-Glo, cherry-picked (AID 624134). Type of experiment: functional, cell-based. On the technique in general: ATP-based viability assays read luminescence as a measure of living cells.
Experiment [9] in a line: Shn3 3'UTR reporter inhibitors, dose response, cell-based, Clone20 osteoblasts, firefly luciferase, cherry-picked (AID 624132).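 Also: firefly luciferase luminescence from reporter carrying the Shn3 3'UTR in osteoblasts.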 It is filed as functional.
The test system of experiment [10] is INS1. Briefly: beta cell apoptosis inhibitors, cytokine rescue, dose response, luminescence, retest (AID 449756).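 Also: cell death triggered by IL-1 beta plus TNF-alpha plus IFN-gamma mixture; protective hits raise ATP signal compared with cytokine alone wells.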 It is filed as functional, cell-based. The following applies: Rattus norvegicus.
A short description of experiment [11]: control 3'UTR Renilla luciferase suppression, dose response, counter-screen for Shn3 inhibitor project, cell-based, Clone20-Shn3RL, cherry-picked (AID 624133). Type of experiment: functional.
Experiment [12] deals with T2, Histone-lysine N-methyltransferase NSD2 (Homo sapiens, UniProt O96028).
T2 sequence (O96028 whole entry): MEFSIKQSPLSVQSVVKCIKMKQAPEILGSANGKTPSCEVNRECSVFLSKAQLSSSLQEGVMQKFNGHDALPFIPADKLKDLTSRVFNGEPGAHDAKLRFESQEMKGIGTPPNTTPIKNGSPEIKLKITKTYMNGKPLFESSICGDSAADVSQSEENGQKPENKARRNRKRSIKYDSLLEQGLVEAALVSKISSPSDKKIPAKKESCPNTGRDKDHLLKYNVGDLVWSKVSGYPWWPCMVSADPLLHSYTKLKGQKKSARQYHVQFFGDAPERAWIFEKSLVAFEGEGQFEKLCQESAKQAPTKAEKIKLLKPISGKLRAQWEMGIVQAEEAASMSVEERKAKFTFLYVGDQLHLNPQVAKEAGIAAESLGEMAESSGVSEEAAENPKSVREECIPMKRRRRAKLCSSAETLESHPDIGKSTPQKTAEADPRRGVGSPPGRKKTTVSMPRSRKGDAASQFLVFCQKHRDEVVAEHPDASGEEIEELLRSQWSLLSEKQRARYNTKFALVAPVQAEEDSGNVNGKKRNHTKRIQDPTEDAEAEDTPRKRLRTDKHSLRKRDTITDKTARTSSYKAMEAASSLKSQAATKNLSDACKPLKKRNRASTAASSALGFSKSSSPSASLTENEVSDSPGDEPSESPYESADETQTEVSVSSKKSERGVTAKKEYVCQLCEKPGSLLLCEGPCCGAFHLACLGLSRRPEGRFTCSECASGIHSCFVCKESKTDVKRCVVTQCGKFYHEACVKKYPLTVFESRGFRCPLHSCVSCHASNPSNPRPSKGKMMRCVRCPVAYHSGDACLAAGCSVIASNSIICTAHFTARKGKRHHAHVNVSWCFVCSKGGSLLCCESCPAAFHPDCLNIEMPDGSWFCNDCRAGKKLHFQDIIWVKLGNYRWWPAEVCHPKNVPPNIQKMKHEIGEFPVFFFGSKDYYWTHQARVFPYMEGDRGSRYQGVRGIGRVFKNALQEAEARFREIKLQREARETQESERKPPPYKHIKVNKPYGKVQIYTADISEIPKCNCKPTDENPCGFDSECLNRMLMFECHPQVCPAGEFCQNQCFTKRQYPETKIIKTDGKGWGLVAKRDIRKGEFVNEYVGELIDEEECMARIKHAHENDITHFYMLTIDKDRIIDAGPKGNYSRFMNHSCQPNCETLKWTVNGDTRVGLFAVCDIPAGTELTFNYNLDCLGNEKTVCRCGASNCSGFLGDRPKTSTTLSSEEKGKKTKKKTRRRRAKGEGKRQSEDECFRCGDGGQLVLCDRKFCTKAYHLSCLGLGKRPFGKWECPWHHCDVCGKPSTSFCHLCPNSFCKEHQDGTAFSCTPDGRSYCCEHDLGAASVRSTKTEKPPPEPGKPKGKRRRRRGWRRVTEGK
It is filed as biochemical.

The target in experiment [13] is T3, High affinity choline transporter 1 (Homo sapiens, UniProt Q9GZV3).
T3 sequence (Q9GZV3 whole entry): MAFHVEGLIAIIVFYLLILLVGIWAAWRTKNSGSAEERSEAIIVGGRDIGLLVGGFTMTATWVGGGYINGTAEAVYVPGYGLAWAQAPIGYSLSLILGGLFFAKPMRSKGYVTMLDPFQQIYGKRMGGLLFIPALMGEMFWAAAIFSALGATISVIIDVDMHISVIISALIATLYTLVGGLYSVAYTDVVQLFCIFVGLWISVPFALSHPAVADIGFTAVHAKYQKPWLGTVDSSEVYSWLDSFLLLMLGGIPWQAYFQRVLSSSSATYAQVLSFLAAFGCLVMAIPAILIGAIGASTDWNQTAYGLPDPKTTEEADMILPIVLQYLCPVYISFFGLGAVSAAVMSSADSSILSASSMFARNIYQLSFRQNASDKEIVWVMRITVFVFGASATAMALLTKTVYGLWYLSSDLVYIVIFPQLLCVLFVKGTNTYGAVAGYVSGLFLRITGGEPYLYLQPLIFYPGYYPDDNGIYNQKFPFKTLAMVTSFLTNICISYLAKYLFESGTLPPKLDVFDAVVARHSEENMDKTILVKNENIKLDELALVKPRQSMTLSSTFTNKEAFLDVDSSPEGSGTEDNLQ
Briefly: CHT inhibitors, dose response, cell-based, 5-point CRC, membrane potential dye (AID 504840). It is filed as functional.

The target of experiment [14] is T4, Fatty acid synthase (Homo sapiens, UniProt P49327). Briefly: FAS thioesterase domain inhibitors, dose response, biochemical, kinetic fluorescence intensity (AID 624326).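 Also: rate of fluorescence rise from hydrolysis of a fluorogenic O-methyl fluorescein ester substrate.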 Type of experiment: functional.
Experiment [15] has as its target T4, Fatty acid synthase. Briefly: FAS thioesterase domain inhibitors, dose response, biochemical, endpoint fluorescence intensity, uHTS hits (AID 624327).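 Also: fluorescence from hydrolysis of an O-methyl fluorescein acyl ester substrate by the enzyme.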 It is filed as functional.
Experiment [16] can be described thus: cells. It is filed as functional.
The target of experiment [17] is Induced myeloid leukemia cell differentiation protein Mcl-1 (Homo sapiens, UniProt Q07820). It is filed as functional.
Induced myeloid leukemia cell differentiation protein Mcl-1, sequence (Q07820 whole entry): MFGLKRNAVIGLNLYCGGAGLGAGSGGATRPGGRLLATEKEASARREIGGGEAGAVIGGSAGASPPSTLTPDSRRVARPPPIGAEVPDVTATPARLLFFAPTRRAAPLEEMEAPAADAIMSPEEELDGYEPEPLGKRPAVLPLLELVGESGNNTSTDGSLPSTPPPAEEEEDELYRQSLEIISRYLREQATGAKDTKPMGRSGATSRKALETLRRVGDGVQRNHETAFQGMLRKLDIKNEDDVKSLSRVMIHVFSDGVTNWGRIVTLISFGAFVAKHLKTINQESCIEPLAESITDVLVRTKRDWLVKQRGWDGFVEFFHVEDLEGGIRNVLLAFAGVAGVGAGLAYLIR

T4 sequence (P49327 whole entry, the tested form may be a part): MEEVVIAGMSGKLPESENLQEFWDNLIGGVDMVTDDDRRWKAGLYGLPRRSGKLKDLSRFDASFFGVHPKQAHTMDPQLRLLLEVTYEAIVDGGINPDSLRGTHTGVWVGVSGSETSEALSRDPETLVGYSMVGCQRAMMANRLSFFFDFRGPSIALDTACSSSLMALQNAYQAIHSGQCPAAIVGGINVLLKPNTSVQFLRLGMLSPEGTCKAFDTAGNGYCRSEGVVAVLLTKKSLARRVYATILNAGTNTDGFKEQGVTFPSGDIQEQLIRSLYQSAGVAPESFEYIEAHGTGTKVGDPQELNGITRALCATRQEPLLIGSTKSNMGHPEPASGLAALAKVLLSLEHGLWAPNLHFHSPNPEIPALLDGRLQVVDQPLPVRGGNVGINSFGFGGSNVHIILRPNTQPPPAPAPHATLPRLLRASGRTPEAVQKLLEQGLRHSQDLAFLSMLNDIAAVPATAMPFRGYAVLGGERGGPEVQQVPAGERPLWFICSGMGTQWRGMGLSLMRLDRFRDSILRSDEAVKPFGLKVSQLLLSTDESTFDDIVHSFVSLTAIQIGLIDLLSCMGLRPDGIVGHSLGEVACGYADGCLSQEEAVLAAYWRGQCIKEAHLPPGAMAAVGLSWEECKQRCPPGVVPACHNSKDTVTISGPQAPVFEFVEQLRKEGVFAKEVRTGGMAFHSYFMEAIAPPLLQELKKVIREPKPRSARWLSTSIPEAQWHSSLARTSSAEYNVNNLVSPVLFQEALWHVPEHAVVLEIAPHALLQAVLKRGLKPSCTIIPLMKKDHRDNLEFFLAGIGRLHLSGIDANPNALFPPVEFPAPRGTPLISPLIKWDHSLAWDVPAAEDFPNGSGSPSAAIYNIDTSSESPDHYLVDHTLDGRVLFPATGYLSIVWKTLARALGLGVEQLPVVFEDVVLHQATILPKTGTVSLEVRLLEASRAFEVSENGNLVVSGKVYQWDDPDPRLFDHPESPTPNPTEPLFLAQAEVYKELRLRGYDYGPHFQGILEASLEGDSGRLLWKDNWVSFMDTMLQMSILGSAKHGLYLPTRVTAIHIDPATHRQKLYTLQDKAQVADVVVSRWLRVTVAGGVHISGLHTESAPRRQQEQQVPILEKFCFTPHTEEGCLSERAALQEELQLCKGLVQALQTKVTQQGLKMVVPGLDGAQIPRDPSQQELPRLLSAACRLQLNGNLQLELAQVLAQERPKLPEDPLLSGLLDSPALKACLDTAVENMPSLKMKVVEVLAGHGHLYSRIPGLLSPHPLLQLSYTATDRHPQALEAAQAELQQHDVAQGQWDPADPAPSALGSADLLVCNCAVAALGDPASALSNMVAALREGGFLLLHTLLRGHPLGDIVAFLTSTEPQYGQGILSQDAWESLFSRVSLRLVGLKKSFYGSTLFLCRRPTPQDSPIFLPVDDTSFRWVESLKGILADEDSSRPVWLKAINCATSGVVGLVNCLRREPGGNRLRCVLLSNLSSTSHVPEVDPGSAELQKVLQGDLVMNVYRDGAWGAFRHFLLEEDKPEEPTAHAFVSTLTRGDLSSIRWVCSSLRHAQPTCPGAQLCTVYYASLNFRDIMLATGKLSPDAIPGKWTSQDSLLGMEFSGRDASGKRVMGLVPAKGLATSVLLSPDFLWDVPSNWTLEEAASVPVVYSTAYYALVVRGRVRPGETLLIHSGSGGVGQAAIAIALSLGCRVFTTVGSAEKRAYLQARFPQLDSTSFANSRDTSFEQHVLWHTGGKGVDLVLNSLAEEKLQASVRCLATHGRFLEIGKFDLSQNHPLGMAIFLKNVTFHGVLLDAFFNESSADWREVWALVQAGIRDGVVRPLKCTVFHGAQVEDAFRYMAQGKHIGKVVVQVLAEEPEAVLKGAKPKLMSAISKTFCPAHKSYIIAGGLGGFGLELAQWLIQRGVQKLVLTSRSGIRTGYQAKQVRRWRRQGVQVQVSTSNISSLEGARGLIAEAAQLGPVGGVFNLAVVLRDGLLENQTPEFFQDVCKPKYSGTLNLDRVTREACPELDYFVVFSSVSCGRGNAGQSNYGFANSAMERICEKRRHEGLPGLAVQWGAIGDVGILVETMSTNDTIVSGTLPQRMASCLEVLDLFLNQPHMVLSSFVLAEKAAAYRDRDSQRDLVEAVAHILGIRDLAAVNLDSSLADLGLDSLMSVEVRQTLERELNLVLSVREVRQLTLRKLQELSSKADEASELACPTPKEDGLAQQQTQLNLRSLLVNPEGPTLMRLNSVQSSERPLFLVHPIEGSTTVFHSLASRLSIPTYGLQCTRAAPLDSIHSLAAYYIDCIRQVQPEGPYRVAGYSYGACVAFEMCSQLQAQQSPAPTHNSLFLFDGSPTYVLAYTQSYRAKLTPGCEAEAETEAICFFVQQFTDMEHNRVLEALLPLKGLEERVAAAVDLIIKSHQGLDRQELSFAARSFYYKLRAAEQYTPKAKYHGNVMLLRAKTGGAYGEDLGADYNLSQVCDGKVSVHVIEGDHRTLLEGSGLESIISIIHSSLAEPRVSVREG

For `C[C@@H]1CN([C@H](C)CO)C(=O)c2ccccc2-c2ccccc2CO[C@H]1CN(C)C(=O)Nc1cccc(C(F)(F)F)c1`, the AC50 – broadly, the concentration giving half of the maximal activity seen – in experiment [1] was 1.19 µM (active); in experiment [2], 3.23 µM (active); in experiment [3] it was 1.45 µM (active); in experiment [4], 1.03 µM (active); in experiment [5], 86.3 µM (active).

On to `C=CCc1c(C)nc(SC)nc1Nc1ccc(C(C)=O)cc1`, for which the CC50 in experiment [6] is > 40 µM (active).

Take `Cc1cc(O)nc(SCC(=O)Nc2cccc3ccccc23)c1C#N`: in [7], the IC50 – broadly, the midpoint of a concentration-inhibition curve – is 2.2 µM (active).

Regarding `O=S(=O)(c1ccc(Cl)cc1)N1CCN(c2ncnc3sccc23)CC1`, the AC50 is 32.2 µM (active) in experiment [8], 3.04 µM (active) in experiment [9], 5.44 µM (active) in experiment [10] and 5.25 µM (active) in experiment [11].

`C[C@@H]1CN([C@@H](C)CO)C(=O)c2c(c3ccccc3n2C)-c2ccccc2CO[C@@H]1CN(C)C(=O)c1cc(Cl)cc(Cl)c1`: the half-maximal activity concentration (AC50) was 2.02 µM (active) in experiment [1]; 1.5 µM (active) in [2]; 2.11 µM (active) in experiment [3]; 1.88 µM (active) in [4]; 22.4 µM (active) in [5].

As to `CCN1CCC(CNCc2cn(-c3ccc(OC)cc3)nc2-c2ccccc2Cl)C1` (stereo not given), in experiment [12], the AC50 is > 20 µM (inactive).

As for `Cc1cccc(C)c1NC(=O)CN(C)C(=O)c1cccc(S(=O)(=O)N2CCN(c3ccc(F)cc3)CC2)c1`, the AC50 is > 70 µM (inactive) in experiment [8], 2.2 µM (active) in [9] and 13 µM (active) in experiment [11].

As to `COc1ccc(-c2nnn(CC(=O)Nc3ccc4c(c3)OCCO4)n2)cc1OC`, the AC50 in experiment [8] is > 70 µM (inactive); in experiment [11], 21.2 µM (active).

With `O=C(CN1C(=O)C2CC=CCC2C1=O)NCC1COc2ccccc2O1` (stereo not given), in experiment [7], the IC50 was 8.66 µM (active).

As for `O=C(Nc1ccc(-c2ccccc2)cc1)[C@H]1[C@H](CO)[C@H]2Cn3c(cccc3=O)[C@@H]1N2Cc1ccccc1`, the AC50 is 1.24 µM (active) in experiment [1]; 0.921 µM (active) in experiment [2]; 1.44 µM (active) in experiment [3]; 1.03 µM (active) in experiment [4]; 48.4 µM (active) in experiment [5].

With `CCCN(CCC)CCCNC(=O)c1cn(CC)c2ccc(S(=O)(=O)N3CCc4ccccc4C3)cc2c1=O`, in experiment [12], the AC50 is > 20 µM (inactive).

Take `Cc1cc([N+](=O)[O-])c(NCCCCCCO)c([N+](=O)[O-])c1`: the IC50 in [13] was 12.6 µM (active).

`CCN(c1cccc(C)c1)S(=O)(=O)c1ccc2[nH]c(=O)c(=O)[nH]c2c1`: in [7], the IC50 was 1.62 µM (active).

For the compound `O=C(/C=C/c1cccc([N+](=O)[O-])c1)NCc1ccc2c(c1)OCO2`, the IC50 was 2.72 µM (active) in experiment [14] and 2.33 µM (active) in experiment [15].

Regarding `O[C@H]1C[C@H](c2ccc(Cl)cc2)N(CC2CCCCC2)C[C@@H]1n1cc(C2CC2)nn1`, the IC50 was 13.1 µM (active) in [14] and 12 µM (active) in experiment [15].

Regarding `CC(C)CCNc1nc(N)c([N+](=O)[O-])c(N2CCCCCC2)n1`, the AC50 in [8] is 47.5 µM (active); in experiment [9], 8.79 µM (active); in [11] it was 5.43 µM (active).

Regarding `CCCCN1C(=O)NC(=O)/C(=C/c2ccc[nH]2)C1=O`, the IC50 in experiment [16] was 1.46 µM (active). The CC50 in [6] is > 40 µM (active).

For `O=C1Oc2ccccc2C(=O)/C1=C/c1c[nH]c2ccccc12`, the IC50 in [17] was 5.56 µM (active). In experiment [6], the CC50 was 30.9 µM (active).

As for `O=c1oc(-c2ccccc2F)nc2scc(-c3ccccc3)c12`, the IC50 was 0.638 µM (active) in experiment [14] and 1.19 µM (active) in [15].

Consider `CCC(C)c1ccc(NC(S)=NCc2ccccn2)cc1` (stereo not given), for which the IC50 in experiment [13] was 13.2 µM (active).

On to `C[C@@H]1CN([C@@H](C)CO)C(=O)c2c(c3ccccc3n2C)-c2ccccc2CO[C@@H]1CN(C)Cc1ccc(Oc2ccccc2)cc1`, for which the AC50 in [1] is 3.44 µM (active); in experiment [2] it was 0.906 µM (active); in experiment [3], 1.3 µM (active); in [4], 0.59 µM (active); in experiment [5], 22.8 µM (active).

Take `COc1ccc2c3c(n(C)c2c1)[C@@H](CO)NCC31CCN(Cc2ccc(-c3ccccn3)cc2)CC1`: the AC50 in experiment [1] was 0.447 µM (active); in experiment [2], 0.56 µM (active); in experiment [3], 0.696 µM (active); in [4], 0.44 µM (active); in experiment [5], 19.4 µM (active).

For `CC(C)COc1ccc(C(=O)N/C(=C/c2cccc([N+](=O)[O-])c2)C(=O)O)cc1`, the figures for the IC50 in [14] and in experiment [15] were 9.3 µM (active) and 14.2 µM (active), respectively.

As for `COc1ccc(NS(=O)(=O)c2ccc(C(=O)N3CCCCCC3)cc2)cc1`, the AC50 in experiment [8] is 48.4 µM (active); in experiment [9] it was 4.51 µM (active); in [11], 9.07 µM (active).
